Source: PubChem BioAssay AID2060337 (Molecular Pharmacology Branch, DTP, NCI, 2025)
pIC50: −log10 of the molar value. Several values for one entry are separate records, joined by “and”; a condition that tells them apart may be missing. Equal values may be shown once.

System: 832693-133-R-J1-PDC multi-cell spheroids, viability
Assay: Anticancer human tumor 832693-133-R-J1-PDC patient-derived head and neck squamous carcinoma cell line growth inhibition [IpAb]
Conditions: for viability, T/C: stronger effect = lower value
Description: Combinatorial screen of targeted agents with ipatasertib and abemaciclib in multi-cell type tumor spheroids
A high-throughput screen of multi-cell type tumor spheroids was designed to identify active combinations of targeted small molecules and ipatasertib or abemaciclib. Complex spheroids include a stromal component modeled by human endothelial cells (HUVEC) and fibroblasts modeled by human mesenchymal stem cells (MSCs). The concentration ranges selected for each drug and investigational agent were based upon clinically achievable concentrations if the clinical Cmax of the agent was known.
Compounds. The drugs and investigational agents: ipatasertib (NSC767898), abemaciclib(NSC768073), selumetinib (NSC741078), trametinib (758246), adavosertib (NSC754352), everolimus (NSC733504), sapanisertib (NSC764658), vemurafenib (NSC761431), venetoclax (NSC766270), copanlisib (NSC809693), apelisib (NSC765974), palbociblib (NSC758247), vemurafenib (NSC761431), dabrafenib (NSC764134), ravoxertinib (NSC781343), BMS-387032 (NSC767048), sotorasib (NSC818433), talazoparib (NSC767125) and afursertib (NSC778305), were obtained from the National Cancer Institute (NCI) Developmental Therapeutics Program Chemical Repository. The FDA-approved anticancer drug set is available from the NCI Developmental Therapeutics Program. […] The stock solutions were prepared in dimethyl sulfoxide (DMSO, Sigma-Aldrich, St. Louis, MO, cat. D2650) at 800-fold the tested concentration and stored at -70 degrees C prior to their use. All drugs and investigational agents were tested over a range starting from a high concentration at or near the clinical Cmax and decreasing in half-log increments. If the clinical Cmax for an agent had not been determined, the highest concentration tested was 10 microM.
NCI60 Cell Culture. NCI60 cell lines were obtained from the NCI Developmental Therapeutics Program Tumor Repository. For each lot of cells, the Repository performed Applied Biosystems AmpFLSTR Identifiler testing with PCR amplification to confirm consistency with the published Identifier STR profile for each cell line. Cells were kept in continuous culture for no more than 20 passages. The optimal seeding densities for each of the cell lines at each time point assessed were determined prior to performing the concentration response studies. Briefly, the NCI60 human tumor lines were grown as monolayers in RPMI 1640 medium supplemented with 10% FBS and 2 mmol/L L-glutamine.
An additional 9 lines were from the NCI60 cell line panel including MDA-MB-231 breast carcinoma, MDA-MB-468 breast carcinoma, MCF7 breast carcinoma, Hs578T breast carcinoma, MALME-3M melanoma, SK-MEL-2 melanoma, SK-OV-3 ovarian carcinoma, DU-145 prostate carcinoma, PC-3 prostate carcinoma, all cell lines along with major genetic alterations are listed on Table 2. Pooled donor human umbilical vein endothelial cells (HUVEC, Lonza, cat. CC-2519) and human mesenchymal stem cells (hMSC, Lonza, cat. PT-2501) were purchased from Lonza (Walkersville, MD).
PDMR cell lines were grown in complete medium (DC medium): Dulbecco's modified Eagle's medium (DMEM)/F12 supplemented with 5% fetal bovine serum (FBS), 2 mM L-glutamine, 100 U/mL penicillin and 100 µg/ml streptomycin, 0.4 µg/ml hydrocortisone, 10 ng/ml epidermal growth factor (EGF) recombinant human protein, 24 µg/mL adenine, and 0.1 mg/mL primocin. During culture from frozen stock vials, PDMR cells were cultured in the same medium containing 10 µM Y-27632 (see Table 3). The PDCs were cultured in complete DMEM/F12 media without 10 microM Y-27632 dihydrochloride for at least two passages prior to the screen. The pooled donor HUVEC and hMSC were cultured in endothelial cell growth medium 2 (PromoCell, Heidelberg, Germany, cat. C-22011) and mesenchymal stem cell growth medium 2 (PromoCell, cat. C-28009), respectively. For all experiments, HUVEC and hMSC were used at passages </=5.
[…]
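Also: spheroids exposed to the drugs for one week before the viability readout.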
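For viability, T/C in this document: 100% = DMSO vehicle control wells.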

Cc1nc(NC(=O)N2CCCC2C(N)=O)sc1-c1ccnc(C(C)(C)C(F)(F)F)c1 (stereo not given)
viability, T/C (compound 0.0316 µM): 93.3% and 84.1%
viability, T/C (compound 0.1 µM): 80.6% and 87.4%
viability, T/C (compound 0.316 µM): 66.7% and 55.5%
viability, T/C (compound 1 µM): 36.9% and 39.1%
viability, T/C (compound 3.16 µM): 17.8% and 12.8%
viability, T/C (compound 10 µM): 4.84% and 2.57%
pIC50 (curve of compound): 6.22 and 6.27

Cn1cnc2c(F)c(Nc3ccc(Br)cc3Cl)c(C(=O)NOCCO)cc21
viability, T/C (compound 0.00949 µM): 79.6% and 64.7%
viability, T/C (compound 0.03 µM): 69.7% and 59.6%
viability, T/C (compound 0.0949 µM): 57.5% and 53.9%
viability, T/C (compound 0.3 µM): 48.1% and 43.7%
viability, T/C (compound 0.949 µM): 38.3% and 35.9%
viability, T/C (compound 3 µM): 19.1% and 15%
pIC50 (curve of compound): 6.62 and 6.78

Cn1ncc(Cl)c1-c1cc(C(=O)NC(CN)Cc2cccc(F)c2)sc1Cl (stereo not given)
viability, T/C (compound 0.0316 µM): 99.5% and 99.8%
viability, T/C (compound 0.1 µM): 89.4% and 102%
viability, T/C (compound 0.316 µM): 74.4% and 79.5%
viability, T/C (compound 1 µM): 73.6% and 68.3%
viability, T/C (compound 3.16 µM): 85% and 86%
viability, T/C (compound 10 µM): 0.3% and 0.39%
pIC50 (curve of compound): 5.30 and 5.29

Cn1nccc1Nc1nccc(-c2ccn(C(CO)c3ccc(Cl)c(F)c3)c(=O)c2)n1 (stereo not given)
viability, T/C (compound 0.0316 µM): 97.1% and 93.1%
viability, T/C (compound 0.1 µM): 77% and 82.1%
viability, T/C (compound 0.316 µM): 64.1% and 70.2%
viability, T/C (compound 1 µM): 57.1% and 65.9%
viability, T/C (compound 3.16 µM): 34.3% and 33.6%
viability, T/C (compound 10 µM): 13% and 24.2%
pIC50 (curve of compound): 5.97 and 5.78

Cn1ncnc1[C@H]1c2n[nH]c(=O)c3cc(F)cc(c23)N[C@@H]1c1ccc(F)cc1
viability, T/C (compound 0.000316 µM): 110% and 111%
viability, T/C (compound 0.001 µM): 97.9% and 109%
viability, T/C (compound 0.00316 µM): 98.3% and 96.9%
viability, T/C (compound 0.01 µM): 86.5% and 107%
viability, T/C (compound 0.0316 µM): 95.6% and 93.8%
viability, T/C (compound 0.1 µM): 86.1% and 84.1%
pIC50 (curve of compound): < 7.00

Cn1cnc2c(F)c(Nc3ccc(Br)cc3Cl)c(C(=O)NOCCO)cc21 + CC(C)NCC(C(=O)N1CCN(c2ncnc3c2C(C)CC3O)CC1)c1ccc(Cl)cc1
pIC50 (curve of first compound, second compound 0.1 µM): 7.02
pIC50 (curve of first compound, second compound 0.316 µM): > 8.02
pIC50 (curve of first compound, second compound 1 µM): > 8.02
pIC50 (curve of first compound, second compound 3.16 µM): > 8.02
pIC50 (curve of first compound, second compound 10 µM): 6.80
viability, T/C (second compound 0.1 µM, first compound 0.00949 µM): 77%
viability, T/C (second compound 0.1 µM, first compound 0.03 µM): 66.9%
viability, T/C (second compound 0.1 µM, first compound 0.0949 µM): 45.5%
viability, T/C (second compound 0.1 µM, first compound 0.3 µM): 38.7%
viability, T/C (second compound 0.1 µM, first compound 0.949 µM): 27.1%
viability, T/C (second compound 0.1 µM, first compound 3 µM): 14.7%
viability, T/C (second compound 0.316 µM, first compound 0.00949 µM): 49.5%
viability, T/C (second compound 0.316 µM, first compound 0.03 µM): 39.9%
viability, T/C (second compound 0.316 µM, first compound 0.0949 µM): 33.7%
viability, T/C (second compound 0.316 µM, first compound 0.3 µM): 30.6%
viability, T/C (second compound 0.316 µM, first compound 0.949 µM): 17.4%
viability, T/C (second compound 0.316 µM, first compound 3 µM): 11.2%
viability, T/C (second compound 1 µM, first compound 0.00949 µM): 44.3%
viability, T/C (second compound 1 µM, first compound 0.03 µM): 32%
viability, T/C (second compound 1 µM, first compound 0.0949 µM): 30.4%
viability, T/C (second compound 1 µM, first compound 0.3 µM): 17.7%
viability, T/C (second compound 1 µM, first compound 0.949 µM): 12.5%
viability, T/C (second compound 1 µM, first compound 3 µM): 8.67%
viability, T/C (second compound 3.16 µM, first compound 0.00949 µM): 42.9%
viability, T/C (second compound 3.16 µM, first compound 0.03 µM): 35.3%
viability, T/C (second compound 3.16 µM, first compound 0.0949 µM): 28.6%
viability, T/C (second compound 3.16 µM, first compound 0.3 µM): 22.4%
viability, T/C (second compound 3.16 µM, first compound 0.949 µM): 15.8%
viability, T/C (second compound 3.16 µM, first compound 3 µM): 11.9%
viability, T/C (second compound 10 µM, first compound 0.00949 µM): 64%
viability, T/C (second compound 10 µM, first compound 0.03 µM): 68.1%
viability, T/C (second compound 10 µM, first compound 0.0949 µM): 58.7%
viability, T/C (second compound 10 µM, first compound 0.3 µM): 38.7%
viability, T/C (second compound 10 µM, first compound 0.949 µM): 14.6%
viability, T/C (second compound 10 µM, first compound 3 µM): 4.33%
